Literature values, collected in patent US6552040B1, “Use of nitroxides in wound healing and in the prevention of photodamage” (priority 1999, dated 2003).

Tests used:
[1] = system: UVB radiation-induced mouse skin damage; conditions: mice, topical solution prior to UVB exposure, versus untreated mice
[2] = in vitro and in vivo
[3] = system: radiation-induced alopecia; conditions: field of heavily irradiated skin

SMILES | protection against UVB radiation skin damage [1] | further results
CC(C)(CO)[C@@H](O)C(=O)NCCC(=O)NCCS [pantetheine] | no significant protection | 
Cc1cc(C(C)(C)C)c(O)c(C(C)(C)C)c1 [BHT] | no significant protection | 
CCCOC(=O)c1cc(O)c(O)c(O)c1 [propyl galate] | significantly less damage | 
Cc1c(C)c2c(c(C)c1O)CCC(C)(C(=O)O)O2 (stereo not shown) [Trolox] | significantly less damage | 
C=CC(O)C(O)C=C (stereo not shown) [divinylglycol] | no significant protection | 
CC1(C)CC(O)CC(C)(C)N1[O] [Tempol, 4-hydroxy-2,2,6,6-tetramethyl-piperidinyloxy, free radical] |  | protection of mammalian cells from hydrogen peroxide mediated cytotoxicity (mammalian cells): protecting mammalian cells; protection of mammalian cells from superoxide generated from hypoxanthine/xanthine oxidase (mammalian cells; superoxide dismutase mimic): protecting mammalian cells; protection against ionizing radiation [2]: both in vitro and in vivo protection; protection against radiation-induced alopecia [3]: speeding the recovery of hair growth
CC1=C(/C=C/C(C)=C/C=C/C(C)=C/C=C/C=C(C)/C=C/C=C(C)/C=C/C2=C(C)CCCC2(C)C)C(C)(C)CCC1 [beta-carotene] | no significant protection | 
NC(N)=O [urea] | no significant protection | 
Cc1c(C)c2c(c(C)c1O)CC[C@@](C)(CCC[C@H](C)CCC[C@H](C)CCCC(C)C)O2 [alphatocopherol] | significantly less damage | 
N[C@@H](CCC(=O)N[C@@H](CS)C(=O)NCC(=O)O)C(=O)O [glutathione] | no significant protection | 
OC[C@@H](O)[C@@H](O)[C@H](O)[C@H](O)CO [mannitol] | no significant protection | 
N[C@@H](Cc1c[nH]cn1)C(=O)O [histidine] | no significant protection | 
O=C1O[C@H]([C@@H](O)CO)C(O)=C1O [ascorbic acid] | significantly less damage | 
